According to ChEMBL document CHEMBL3351990, “Jiangrines A-F and jiangolide from an actinobacterium, Jiangella gansuensis” (J Nat Prod, 2014):
pIC50: −log10 of the molar value.

Key:
RAW264.7 [1] = assay: Antiinflammatory activity in mouse RAW264.7 cells assessed as inhibition of LPS-induced NO production incubated for 1 hr prior to LPS-challenge measured after 24 hrs by Greiss assay; assay type: functional, cell-based
RAW264.7 [2] = assay: Cytotoxicity against mouse RAW264.7 cells assessed as cell viability at 100 uM; assay type: cell-based; conditions: raw264.7, 100 µM
RAW264.7 [3] = assay: Antiinflammatory activity in mouse RAW264.7 cells assessed as inhibition of LPS-induced NO production at 100 uM incubated for 1 hr prior to LPS-challenge measured after 24 hrs by Greiss assay; assay type: functional

pIC50 (RAW264.7 [1])	SMILES	Activity (RAW264.7 [2])	inhibition at 100 µM (RAW264.7 [3])
4.01	O=Cc1ccc([C@H](O)[C@H](O)CO)n1CCc1ccc(O)cc1 (relative stereo)	Non-toxic	–
4.21	C[C@H]1/C=C\C[C@H]2[C@@H](CC[C@@H]2O)CC(=O)OC[C@H]2O[C@@H](O1)[C@H](O)[C@@H](O)[C@@H]2O	Non-toxic	–
4.23	O=Cc1ccc(CO)n1CCc1ccc(O)cc1	Non-toxic	–
4.52	CO[C@@H](c1ccc(C=O)n1CCc1ccc(O)cc1)[C@H](O)CO	Non-toxic	–
4.26	CC(=O)NCCCCCn1cccc1C=O	Non-toxic	–
4.22	O=Cc1ccc([C@H](O)[C@H](O)CO)n1CCc1c[nH]c2ccccc12 (relative stereo)	Non-toxic	–
4.52	CO[C@H](c1ccc(C=O)n1CCc1ccc(O)cc1)[C@H](O)CO	Non-toxic	–
–	O=c1[nH]cnc2c1-c1cccn1CC2	Non-toxic	< 20%

SMILES	pIC50 (RAW264.7 [1])	Activity (RAW264.7 [2])	inhibition at 100 µM (RAW264.7 [3])
COC(=O)[C@@H](N)CCCNC(=N)N[N+](=O)[O-] [L-NAME]	4.27	–	–
